Measured values as given in ChEMBL document CHEMBL5252560 (Bioorg Med Chem Lett, 2023).
The source made the active and inactive calls. The rule behind the calls is not given here.

What was measured:
HepG2 [1] = assay: Induction of cell cycle arrest in human HepG2 cells assessed as accumulation of cells at G2 phase at 50 nM by propidium iodide staining based flow cytometric analysis (reference value: 8.58%); format: functional
HepG2 [2] = assay: Induction of cell cycle arrest in human HepG2 cells assessed as accumulation of cells at G1 phase at 100 nM by propidium iodide staining based flow cytometric analysis (reference value: 72.08 %); format: functional
HepG2 [3] = assay: Induction of cell cycle arrest in human HepG2 cells assessed as accumulation of cells at G2 phase at 50 nM incubated for 12 hrs by propidium iodide staining based flow cytometric analysis (reference value: 15.06%); format: functional
HepG2 [4] = assay: Induction of cell cycle arrest in human HepG2 cells assessed as accumulation of cells at G2 phase at 100 nM by propidium iodide staining based flow cytometric analysis (reference value: 8.58%); format: functional
HepG2 [5] = assay: Induction of cell cycle arrest in human HepG2 cells assessed as accumulation of cells at G1 phase at 50 nM by propidium iodide staining based flow cytometric analysis (reference value: 72.08 %); format: functional
Tubulin (Homo sapiens) [6] = target: T1, Tubulin (Homo sapiens) (UniProt P68371+Q9H4B7+P0DPH7+P68366+Q13509+Q71U36+P04350+Q3ZCM7+P07437+P68363+Q9BQE3+Q6PEY2+Q13885+Q9BVA1+Q9BUF5); assay: Disruption of microtubule assembly in human HepG2 cells assessed as loss of microtubule structure at 100 nM by immunofluorescence analysis; format: cell-based
HepG2 [7] = assay: Induction of cell cycle arrest in human HepG2 cells assessed as accumulation of cells at S phase at 25 nM by propidium iodide staining based flow cytometric analysis (reference value: 19.34%); format: functional
HepG2 [8] = assay: Induction of cell cycle arrest in human HepG2 cells assessed as accumulation of cells at G1 phase at 50 nM incubated for 24 hrs by propidium iodide staining based flow cytometric analysis (reference value: 62.58%); format: functional
HepG2 [9] = assay: Induction of cell cycle arrest in human HepG2 cells assessed as accumulation of cells at S phase at 50 nM incubated for 24 hrs by propidium iodide staining based flow cytometric analysis (reference value: 22.36%); format: functional
HepG2 [10] = assay: Induction of cell cycle arrest in human HepG2 cells assessed as accumulation of cells at G2 phase at 25 nM by propidium iodide staining based flow cytometric analysis (reference value: 8.58%); format: functional
Tubulin (Homo sapiens) [11] = target: T1, Tubulin (Homo sapiens); assay: Inhibition of tubulin (unknown origin) polymerization assessed as reduction in fluorescence intensity at 4 uM; format: protein-complex assay
HepG2 [12] = assay: Inhibition of cell invasion in human HepG2 cells by transwell invasion assay; format: functional, cell-based; settings: dose 25-100 nM
HepG2 [13] = assay: Inhibition of cell migration in human HepG2 cells at 25 to 100 nM incubated for 48 hrs by wound healing assay; format: functional, cell-based; settings: dose 25-100 nM
Tubulin (Homo sapiens) [14] = target: T1, Tubulin (Homo sapiens); assay: Disruption of microtubule assembly in human HepG2 cells assessed as changes in cell morphology at 100 nM by immunofluorescence analysis; format: cell-based
HepG2 [15] = assay: Induction of apoptosis in human HepG2 cells by AnnexinV-FITC/PI-staining based flow cytometry; format: functional, cell-based; settings: dose 25-100 nM
Y79 = assay: Antiproliferative activity against human Y79 cells assessed as cell growth inhibition; format: functional, cell-based
HepG2 [16] = assay: Induction of cell cycle arrest in human HepG2 cells assessed as accumulation of cells at G1 phase at 25 nM by propidium iodide staining based flow cytometric analysis (reference value: 72.08 %); format: functional
HepG2 [17] = assay: Induction of cell cycle arrest in human HepG2 cells assessed as accumulation of cells at S phase at 50 nM incubated for 12 hrs by propidium iodide staining based flow cytometric analysis (reference value: 22.36%); format: functional
HepG2 [18] = assay: Induction of cell cycle arrest in human HepG2 cells assessed as accumulation of cells at G1 phase at 50 nM incubated for 12 hrs by propidium iodide staining based flow cytometric analysis (reference value: 62.58%); format: functional
HepG2 [19] = assay: Induction of cell cycle arrest in human HepG2 cells assessed as accumulation of cells at S phase at 50 nM by propidium iodide staining based flow cytometric analysis (reference value: 19.34%); format: functional
U-937 = assay: Antiproliferative activity against human U-937 cells assessed as cell growth inhibition; format: functional, cell-based
HepG2 [20] = assay: Induction of cell cycle arrest in human HepG2 cells assessed as accumulation of cells at G1 phase at 50 nM incubated for 6 hrs by propidium iodide staining based flow cytometric analysis (reference value: 62.58%); format: functional
HepG2 [21] = assay: Induction of cell cycle arrest in human HepG2 cells assessed as accumulation of cells at S phase at 50 nM incubated for 6 hrs by propidium iodide staining based flow cytometric analysis (reference value: 22.36%); format: functional
HepG2 [22] = assay: Induction of cell cycle arrest in human HepG2 cells assessed as accumulation of cells at G2 phase at 50 nM incubated for 24 hrs by propidium iodide staining based flow cytometric analysis (reference value: 15.06%); format: functional
A549 = assay: Antiproliferative activity against human A549 cells assessed as cell growth inhibition; format: functional, cell-based
HepG2 [23] = assay: Induction of cell cycle arrest in human HepG2 cells assessed as accumulation of cells at G2 phase at 50 nM incubated for 6 hrs by propidium iodide staining based flow cytometric analysis (reference value: 15.06%); format: functional
HepG2 [24] = assay: Induction of cell cycle arrest in human HepG2 cells assessed as accumulation of cells at S phase at 100 nM by propidium iodide staining based flow cytometric analysis (reference value: 19.34%); format: functional
HepG2 [25] = assay: Antiproliferative activity against human HepG2 cells assessed as cell growth inhibition; format: functional, cell-based

## COc1cc(C(/C=C/c2ccc3[nH]ccc3c2)=N/O)cc(OC)c1OC
HepG2 [1]
  Activity: 38.86%
HepG2 [2]
  Activity: 6%
HepG2 [3]
  Activity: 25.73%
HepG2 [4]
  Activity: 70.39%
HepG2 [5]
  Activity: 56.33%
Tubulin (Homo sapiens) [6]
  Activity: Active
HepG2 [7]
  Activity: 4.78%
HepG2 [8]
  Activity: 60.13%
HepG2 [9]
  Activity: 26.95%
HepG2 [10]
  Activity: 23.54%
Tubulin (Homo sapiens) [11]
  inhibition: Active
HepG2 [12]
  inhibition: Dose-Dependent Effect
HepG2 [13]
  inhibition: Active
Tubulin (Homo sapiens) [14]
  Activity: Active
HepG2 [15]
  Activity: Dose-Dependent Effect
Y79
  IC50: 251 nM
HepG2 [16]
  Activity: 71.68%
HepG2 [17]
  Activity: 17.79%
HepG2 [18]
  Activity: 56.18%
HepG2 [19]
  Activity: 4.81%
U-937
  IC50: 138 nM
HepG2 [20]
  Activity: 63.46%
HepG2 [21]
  Activity: 18.56%
HepG2 [22]
  Activity: 26.95%
A549
  IC50: 271 nM
HepG2 [23]
  Activity: 17.98%
HepG2 [24]
  Activity: 23.61%
HepG2 [25]
  IC50: 65 nM
